EP4120837B1, “INHIBITORS OF CYTOKININ OXIDASE DERIVED FROM 2-(3-PHENYLUREIDO)BENZAMIDE, USE THEREOF AND PREPARATIONS CONTAINING THESE DERIVATIVES” (Univerzita Palackého v Olomouci, priority 2020, dated 2021)
Where “and” joins values, the source holds several entries; their conditions need not be identical. Equal values may be shown once.

Tests used:
[1] = system: wheat; assay: Field trial, seed yield of wheat; assay type: in vivo; conditions: for Yield (%): control = 100 %
Method: Example 19. The application of compound 24 increases the seed yield of wheat in field conditions In 2017, the effect of the application of substance 24 on wheat yield in field conditions was investigated. The substance was again applied either to wheat seeds before sowing (= seed dressing with substance 24 at a concentration of 50 µM) or to leaves (= spraying with substance 24 at a concentration of 5 µM) in two different growth phases - BBCH 25 and BBCH 51. All field experiments were performed according to Good Agricultural Practice. […] Table 6. Application of compound 24 increases seed yield of wheat in field conditions

[2] = system: Arabidopsis thaliana; assay: Foliar application, life span and seed yield of Arabidopsis under drought stress; assay type: in vivo; conditions: 0.01 µM foliar spray, reduced watering
Method: Young Arabidopsis thaliana plants grown in small pots in soil were sprayed with a 0.01 µM aqueous solution of substance 24 in phase of four true leaves (within 14-20 days after sowing). Control plants were sprayed with an aqueous solution of DMSO (c = 0.01% (v/v)) and silwet (c = 0.001% (v/v)). Control plants were further divided into watered plants and those with reduced watering (drought stressed). […] All plants were grown until the stage of their natural death. Control watered plants lived for an average of 85 days before dying spontaneously. Their seed yield in average was 141 (± 22) mg. Control plants with reduced watering lived only 61 days on average and the average yield was 95 (± 14) mg. Plants treated with substance 24 and with reduced watering lived for an average of 75 days and their average seed yield was 117 (± 16) mg. […] Table 3. Foliar application with compound 24 reduces Arabidopsis thaliana seed yield losses

[3] = target: T1, ZmCKX1 (Zea mays, UniProt Q9T0N8); assay: ZmCKX1 inhibition, PMS/MTT assay; assay type: biochemical, maize; conditions: 10 µM iP as substrate, pH 7.4, 30 min at 37 °C; average of at least two measurements; read-out: IC50 (µM) ZmCKX1
T1 construct: made in house; host or cells: Yarrowia lipolytica
T1 sequence (Q9T0N8 19-534): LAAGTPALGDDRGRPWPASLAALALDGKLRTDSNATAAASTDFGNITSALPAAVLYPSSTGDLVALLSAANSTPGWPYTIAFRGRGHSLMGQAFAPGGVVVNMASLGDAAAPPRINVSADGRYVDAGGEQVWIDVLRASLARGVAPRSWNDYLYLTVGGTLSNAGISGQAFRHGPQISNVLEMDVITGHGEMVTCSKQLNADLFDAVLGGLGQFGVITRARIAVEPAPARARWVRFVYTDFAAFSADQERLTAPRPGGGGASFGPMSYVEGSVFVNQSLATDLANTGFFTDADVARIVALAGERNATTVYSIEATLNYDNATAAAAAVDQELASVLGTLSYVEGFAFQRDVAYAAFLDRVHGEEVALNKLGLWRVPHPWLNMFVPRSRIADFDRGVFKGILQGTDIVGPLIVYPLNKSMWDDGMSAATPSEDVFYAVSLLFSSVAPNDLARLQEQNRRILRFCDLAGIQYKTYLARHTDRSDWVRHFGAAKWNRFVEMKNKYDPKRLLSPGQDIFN
Method: The IC50 (concentration of a substance that causes 50% inhibition of the enzyme activity) was measured by PMS/MTT assay [phenazine methosulphate/3-(4,5-dimethylthiazol-2-yl)-2,5-diphenyltetrazolium bromide]. The assay was performed in 96-well microtiter plates. Each well contained a reaction mixture with a final concentration of: 0.1 M KH2PO4, pH 7.4, 1 mM MTT, 0.2 mM PMS, tested substance in a concentration range of 0.1 nM - 1 µM and 10 µM N^6-isopentenyladenine (iP) as a substrate. To this reaction mixture 100 µL of medium containing the active enzyme ZmCKX1 was added. The enzyme was produced by the yeast Yarrowia lipolytica and isolated according to the protocol (Kopečný D. et al., 2005, […] 87:1011-1022). The plates were incubated for 30 min at 37 °C and the enzymatic reaction was stopped by the addition of 25 µL of 35% acetic acid. Then, the absorbance at 578 nm was measured on a spectrophotometer, and the absorbance of the sample without the substrate was substracted as a reference value. The IC50 value was determined from the concentration-dependent curves in GraphPad Prism software. The values shown in Table 1 are the average of at least two measurements each performed in three repetitions. […] The substance 3,5DCl-Ph-U is 1-(3,5-dichlorophenyl)-3-phenylurea, which we have been prepared to compare its inhibitory activity with the compounds presented in the present invention. Addition of the amide group to the unsubstituted phenyl ring of this substance gives the compound 2AD-3,5DC, which has 42-fold better inhibitory activity with the ZmCKX1 enzyme than 3,5DCl-Ph-U. F-INCYDE ((2-fluoro-9H-purin-6-yl)-(3-methoxyphenyl)amine), CPPU (1-(2-chloropyridin-4-yl)-3-phenylurea), and DCPPU (1-(2,6-dichloropyridin-4-yl)-3-phenylurea) are substances known in the prior art.

[4] = system: barley; assay: Field trial, seed yield of barley; assay type: in vivo; conditions: for Yield (%): control = 100 %
Method: The effect of compound 24 on seed yield of barley and its phenotype was investigated in a field trials. All field experiments were performed according to Good agricultural practices, ie. six areas of 10 m^2 were used for one variant. Furthermore, the crop was not treated with any other growth regulator (substance 24 only) or fungicide. Compound 24 was applied to seeds at a concentration of 10 µM before sowing. In 2016 barley seeds treated by this way were grown in the field and the yield of these plants was compared with the untreated control (Table 4).
In 2017, compound 24 was applied to barley leaves at a concentration of 5 µM (in a volume of 200 L per hectare) in two different growth phases - BBCH 21-23 and BBCH 51. […] Table 4. Application of substance 24 increases the seed yield of barley in field conditions

[5] = system: winter rapeseed; assay: Field trial, seed yield of winter rapeseed; assay type: in vivo; conditions: 1 µM foliar application; for Yield (%): 300 L per hectare, control = 100 %; for weight of one thousand seeds: control 5.38 g
Method: In 2018, the effect of foliar application of substance 24 (concentration 1 µM in a volume of 300 L per hectare) on the yield of winter rapeseed was investigated in field conditions. The field trials were again performed according to Good Agricultural Practice. Substance 24 was applied to plants in two different growth phases - BBCH 30 and BBCH 33-35. […] The weight of one thousand seeds in the treated plants was 5.6 g (BBCH 30) and 5.8 g (BBCH 33-35). This phenomenon also contributed to the increase in total seed yield. Table 5. Application of substance 24 increases the seed yield of winter rapeseed in field conditions

[6] = system: Arabidopsis thaliana; assay: Foliar application, seed yield of Arabidopsis under optimal conditions; assay type: in vivo
Method: In our experiment, young Arabidopsis thaliana plants were grown in small pots in soil and they were sprayed with a 0.01 µM compound 24 (aq solution) in phase of 4 true leaves (about 14-20 days after sowing). Control plants were sprayed with an aqueous solution of DMSO (c = 0.01% (v/v)) and silwet (c = 0.001% (v/v)). Both treated (n = 25) and control plants (n = 25) were further grown under optimal conditions until their natural death. Subsequently, seeds from all plants were harvested and the yield was evaluated (Table 2). […] This means an increase in total seed yield of 21 %.
This means an increase in total seed yield of 17 %. Table 2. Foliar application of 24 increases seed yield of Arabidopsis thaliana

[7] = 10 µM seed application before sowing, 2016

IC50 [3]: 0.001 µM
SMILES: COc1ccc(C(N)=O)c(NC(=O)Nc2cc(Cl)cc(Cl)c2)c1 [compound 24, 2-[3-(3,5-Dichlorophenyl)ureido]-4-methoxybenzamide]
Yield (%) ([1]; 5 µM foliar application, BBCH 25, 2017): 105.9%
Yield (%) ([1]; 5 µM foliar application, BBCH 51, 2017): 105.0%
Yield (%) ([1]; 50 µM seed dressing before sowing, 2017): 104.0%
tillers, more than the control plants ([1]; treated plants, mode of application not specified, 2017): about 7%
Yield (mg), average seed yield [2]: 117 ± 16 mg
life span (lived for an average of) [2]: 75 days
Yield (mg), average seed yield ([2]; listed as substance 24): 117 (± 16) mg
Yield (%) ([2]; watered control = 100 %): 83%
Yield (%) ([4]; 5 µM foliar application, 200 L per hectare, BBCH 21-23, 2017): 106.3%
Yield (%) ([4]; 5 µM foliar application, 200 L per hectare, BBCH 51, 2017): 106.8%
number of tillers, more than the control plants [4, 7]: 14%
Yield (%) [4, 7]: 105.3%
Yield (%) ([5]; BBCH 30, 2018): 106.2%
Yield (%) ([5]; BBCH 33-35, 2018): 108.8%
weight of one thousand seeds ([5]; BBCH 30): 5.6 g
weight of one thousand seeds ([5]; BBCH 33-35): 5.8 g
Yield (mg), total seed yield per plant ([6]; 0.01 µM aq solution sprayed in phase of 4 true leaves, n = 25, experiment and its repeat): 148 (± 17) mg and 135 (± 13) mg and 148 ± 17 mg and 135 ± 13 mg
seeds per silique ([6]; 0.01 µM foliar spray, average): 50 (± 5) and 52 (± 7)
Yield (%) ([6]; 0.01 µM foliar spray, control = 100 %): 121% and 117%
